*1 amine or outer side, *2 acyl side, *3 side chain or, on linkers, in order; H or OH if unused. Where a SMILES comes first, the peptide text is derived from it. Bridges are numbered along the chain shown (N, C = ends). Roman numbers before positions name the chains, in order. Side-chain parts run from the residue outwards. [ ]: non-standard residue; d: D form. The star is where a group is joined. X11 = O=C(O)CN1CCN(CC(=O)O)CCN(CC(=O)NCCCOCCOCCOCCCN*)CCN(CC(=O)O)CC1; Ala(piperidin-4-yl) = O=C([C@H](CC1CCN([*:3])CC1)N[*:1])[*:2]; DOTA = O=C(O)CN1CCN(CC(=O)O)CCN(CC(=O)*)CCN(CC(=O)O)CC1; Trp(7-OMe) = COc1cccc2c(C[C@H](N)C(=O)O)c[nH]c12; Trp(7-Me) = Cc1cccc2c(C[C@H](N)C(=O)O)c[nH]c12; 2Nal = N[C@@H](Cc1ccc2ccccc2c1)C(=O)O; mXylylene = c1cc(C[*:1])cc(C[*:2])c1; oXylylene = c1ccc(C[*:2])c(C[*:1])c1; Chg = N[C@H](C(=O)O)C1CCCCC1; NMeNle = CCCC[C@H](NC)C(=O)O; Suc = O=C(CCC(=O)[*:2])[*:1]; CH2 = C([*:1])[*:2]
Target: T1, DLL3 (Homo sapiens, UniProt Q9NYJ7)
T1 sequence (Q9NYJ7 27-618): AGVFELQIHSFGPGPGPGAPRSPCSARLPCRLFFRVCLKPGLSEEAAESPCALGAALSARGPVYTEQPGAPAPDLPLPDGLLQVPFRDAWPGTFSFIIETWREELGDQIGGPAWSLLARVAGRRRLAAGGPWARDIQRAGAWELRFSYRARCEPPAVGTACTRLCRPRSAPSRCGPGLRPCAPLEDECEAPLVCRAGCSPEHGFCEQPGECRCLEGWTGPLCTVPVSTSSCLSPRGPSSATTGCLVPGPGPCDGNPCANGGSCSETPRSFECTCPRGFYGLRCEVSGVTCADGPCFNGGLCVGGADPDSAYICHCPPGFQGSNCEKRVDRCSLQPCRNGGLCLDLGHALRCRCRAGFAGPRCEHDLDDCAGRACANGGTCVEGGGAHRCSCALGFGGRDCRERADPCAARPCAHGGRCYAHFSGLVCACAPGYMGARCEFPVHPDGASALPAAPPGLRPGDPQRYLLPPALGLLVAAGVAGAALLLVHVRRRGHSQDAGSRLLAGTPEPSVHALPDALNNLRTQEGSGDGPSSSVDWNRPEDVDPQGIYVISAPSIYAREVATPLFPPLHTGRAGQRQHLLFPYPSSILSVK
Test: SPR KD, biotinylated human DLL3 on streptavidin chip (Table 8)
Set-up: biotin (biotinylated)
Settings: SPR KD, biotinylated human DLL3 on streptavidin sensor chip, 25° C., 1:1 binding model
From the text: Biotinylated target ligand human DLL3 was immobilized on a streptavidin sensor chip. A reference surface was set up for nonspecific binding and refractive index changes. […] Sensorgram curves were fitted with 1:1 binding model, and affinity and kinetic parameters were obtained using Biacore Insight evaluation 4.0. software.

`CC(=O)N[C@@H](Cc1c[nH]c2ccccc12)C(=O)N[C@H](C(=O)N[C@H](C(=O)N[C@H]1CSSC[C@@H](C(=O)N[C@@H](Cc2c[nH]c3ccccc23)C(=O)N2CCC[C@H]2C(N)=O)NC(=O)[C@H](CC(=O)O)NC(=O)[C@H](CCCCNC(=O)CNC(=O)[C@H](CO)NC(=O)CNC(=O)[C@H](CO)NC(=O)CNC(=O)[C@H](CO)NC(=O)CN2CCN(CC(=O)O)CCN(CC(=O)O)CCN(CC(=O)O)CC2)NC(=O)[C@H](Cc2ccc3ccccc3c2)NC(=O)[C@H](CC(N)=O)NC(=O)[C@H](CC2CCNCC2)NC1=O)C1CCCCC1)[C@@H](C)O` [compound 407, Ac-W-T-(Chg)-C(3)-[3-(4-piperidinyl)-Ala]-N-(2Nal)-Lys(G-S-G-S-G-S-DOTA)-D-C(3)-W-P-CONH2] (I: Ac-WT[Chg]C[Ala(piperidin-4-yl)]N[2Nal]KDCWP-NH2 / II: {DOTA}-SGSGSG; disulfide I:4-I:10; amide I:8-II:C) was tested, and the Kd was less than 1 nM.

Same assay, conditions: biotinylated human DLL3 on streptavidin sensor chip, 25° C., 1:1 binding model; read-out: SPR KD

`CC(=O)N[C@@H](Cc1c[nH]c2ccccc12)C(=O)N[C@H](C(=O)N[C@H](C(=O)N[C@H]1CSCSC[C@@H](C(=O)N[C@@H](Cc2c[nH]c3ccccc23)C(=O)N2CCC[C@H]2C(N)=O)NC(=O)[C@H](CC(=O)O)NC(=O)[C@H](CCCCNC(=O)CN2CCN(CC(=O)O)CCN(CC(=O)O)CCN(CC(=O)O)CC2)NC(=O)[C@H](Cc2ccc3ccccc3c2)NC(=O)[C@H](CC(N)=O)NC(=O)[C@H](CC2CCNCC2)NC1=O)C1CCCCC1)[C@@H](C)O` [compound 398, Ac-W-T-(Chg)-C(1)-[3-(4-piperidinyl)-Ala]-N-(2Nal)-Lys(DOTA)-D-C(1)-W-P-CONH2] (Ac-WT[Chg]C[Ala(piperidin-4-yl)]N[2Nal]K(DOTA)DCWP-NH2; linker 4-10 via CH2) and `CC(=O)N[C@@H](Cc1c[nH]c2ccccc12)C(=O)N[C@H](C(=O)N[C@H](C(=O)N[C@H]1CSCSC[C@@H](C(=O)N[C@@H](Cc2c[nH]c3ccccc23)C(=O)N2CCC[C@H]2C(N)=O)NC(=O)[C@H](C)NC(=O)[C@H](CCCCNC(=O)CN2CCN(CC(=O)O)CCN(CC(=O)O)CCN(CC(=O)O)CC2)NC(=O)[C@H](Cc2ccc3ccccc3c2)NC(=O)[C@H](CC(N)=O)NC(=O)[C@H](CC2CCNCC2)NC1=O)C1CCCCC1)[C@@H](C)O` [compound 416, Ac-W-T-(Chg)-C(1)-[3-(4-piperidinyl)-Ala]-N-(2Nal)-Lys(DOTA)-(Ala)-C(1)-W-P-CONH2] (Ac-WT[Chg]C[Ala(piperidin-4-yl)]N[2Nal]K(DOTA)ACWP-NH2; linker 4-10 via CH2) cannot be ordered by Kd: less than 1 nM for the first, less than 1 nM for the second.

First: CC(=O)N[C@@H](Cc1c[nH]c2ccccc12)C(=O)N[C@H](C(=O)N[C@H](C(=O)N[C@H]1CSCSC[C@@H](C(=O)N[C@@H](Cc2c[nH]c3ccccc23)C(=O)N2CCC[C@H]2C(N)=O)NC(=O)[C@H]([C@@H](C)O)NC(=O)[C@H](CCCCNC(=O)CN2CCN(CC(=O)O)CCN(CC(=O)O)CCN(CC(=O)O)CC2)NC(=O)[C@H](Cc2ccc3ccccc3c2)NC(=O)[C@H](CC(N)=O)NC(=O)[C@H](CC2CCNCC2)NC1=O)C1CCCCC1)[C@@H](C)O [compound 399, Ac-W-T-(Chg)-C(1)-[3-(4-piperidinyl)-Ala]-N-(2Nal)-Lys(DOTA)-(Thr)-C(1)-W-P-CONH2] (Ac-WT[Chg]C[Ala(piperidin-4-yl)]N[2Nal]K(DOTA)TCWP-NH2; linker 4-10 via CH2)
Second: CC(=O)N[C@@H](Cc1c[nH]c2ccccc12)C(=O)N[C@H](C(=O)N[C@H](C(=O)N[C@H]1CSCc2ccccc2CSC[C@@H](C(=O)N[C@@H](Cc2c[nH]c3ccccc23)C(=O)N2CCC[C@H]2C(N)=O)NC(=O)[C@H](CC(=O)O)NC(=O)[C@H](CCCCNC(=O)CN2CCN(CC(=O)O)CCN(CC(=O)O)CCN(CC(=O)O)CC2)NC(=O)[C@H](Cc2ccc3ccccc3c2)NC(=O)[C@H](CC(N)=O)NC(=O)[C@H](CC2CCNCC2)NC1=O)C1CCCCC1)[C@@H](C)O [compound 401, Ac-W-T-(Chg)-C(oDBX)-[3-(4-piperidinyl)-Ala]-N-(2Nal)-Lys(DOTA)-D-C(3)-W-P-CONH2] (Ac-WT[Chg]C[Ala(piperidin-4-yl)]N[2Nal]K(DOTA)DCWP-NH2; linker 4-10 via oXylylene)
The Kd of the first is lower: less than 1 nM for the first, 1 to 10 nM for the second.

`CCCC[C@@H](C(=O)N[C@H]1CSCSC[C@@H](C(=O)N[C@@H](Cc2c[nH]c3ccccc23)C(=O)N2CCC[C@H]2C(N)=O)NC(=O)[C@H](CC(=O)O)NC(=O)[C@H](CCCCNC(=O)CN2CCN(CC(=O)O)CCN(CC(=O)O)CCN(CC(=O)O)CC2)NC(=O)[C@H](Cc2ccc3ccccc3c2)NC(=O)[C@H](CC(N)=O)NC(=O)[C@H](CC2CCNCC2)NC1=O)N(C)C(=O)[C@@H](NC(=O)[C@H](Cc1c[nH]c2ccccc12)NC(C)=O)[C@@H](C)O` [compound 400, Ac-W-T-(NMe-Nle)-C(1)-[3-(4-piperidinyl)-Ala]-N-(2Nal)-Lys(DOTA)-D-C(1)-W-P-CONH2] (Ac-WT[NMeNle]C[Ala(piperidin-4-yl)]N[2Nal]K(DOTA)DCWP-NH2; linker 4-10 via CH2) and `CCCC[C@@H](C(=O)N[C@H]1CSSC[C@@H](C(=O)N[C@@H](Cc2c[nH]c3ccccc23)C(=O)N2CCC[C@H]2C(N)=O)NC(=O)[C@H](CC(=O)O)NC(=O)[C@H](CCCCNC(=O)CN2CCN(CC(=O)O)CCN(CC(=O)O)CCN(CC(=O)O)CC2)NC(=O)[C@H](Cc2ccc3ccccc3c2)NC(=O)[C@H](CC(N)=O)NC(=O)[C@H](CC2CCNCC2)NC1=O)N(C)C(=O)[C@@H](NC(=O)[C@H](Cc1c[nH]c2c(C)cccc12)NC(C)=O)[C@@H](C)O` [compound 408, Ac-(7Me-Trp)-T-(NMe-Nle)-C(3)-[3-(4-piperidinyl)-Ala]-N-(2Nal)-Lys(DOTA)-D-C(3)-W-P-CONH2] (Ac-[Trp(7-Me)]T[NMeNle]C[Ala(piperidin-4-yl)]N[2Nal]K(DOTA)DCWP-NH2; disulfide 4-10) cannot be ordered by Kd: less than 1 nM for the first, less than 1 nM for the second.

Compared with `CC(=O)N[C@@H](Cc1c[nH]c2ccccc12)C(=O)N[C@H](C(=O)N[C@H](C(=O)N[C@H]1CSCc2cccc(c2)CSC[C@@H](C(=O)N[C@@H](Cc2c[nH]c3ccccc23)C(=O)N2CCC[C@H]2C(N)=O)NC(=O)[C@H](CC(=O)O)NC(=O)[C@H](CCCCNC(=O)CN2CCN(CC(=O)O)CCN(CC(=O)O)CCN(CC(=O)O)CC2)NC(=O)[C@H](Cc2ccc3ccccc3c2)NC(=O)[C@H](CC(N)=O)NC(=O)[C@H](CC2CCNCC2)NC1=O)C1CCCCC1)[C@@H](C)O` [compound 402, Ac-W-T-(Chg)-C(mDBX)-[3-(4-piperidinyl)-Ala]-N-(2Nal)-Lys(DOTA)-D-C(3)-W-P-CONH2] (Ac-WT[Chg]C[Ala(piperidin-4-yl)]N[2Nal]K(DOTA)DCWP-NH2; linker 4-10 via mXylylene), `CC(=O)N[C@@H](Cc1c[nH]c2c(C)cccc12)C(=O)N[C@H](C(=O)N[C@H](C(=O)N[C@H]1CSSC[C@@H](C(=O)N[C@@H](Cc2c[nH]c3ccccc23)C(=O)N2CCC[C@H]2C(N)=O)NC(=O)[C@H](CC(=O)O)NC(=O)[C@H](CCCCNC(=O)CN2CCN(CC(=O)O)CCN(CC(=O)O)CCN(CC(=O)O)CC2)NC(=O)[C@H](Cc2ccc3ccccc3c2)NC(=O)[C@H](CC(N)=O)NC(=O)[C@H](CC2CCNCC2)NC1=O)C1CCCCC1)[C@@H](C)O` [compound 404, Ac-(7Me-Trp)-T-(Chg)-C(3)-[3-(4-piperidinyl)-Ala]-N-(2Nal)-Lys(DOTA)-D-C(3)-W-P-CONH2] (Ac-[Trp(7-Me)]T[Chg]C[Ala(piperidin-4-yl)]N[2Nal]K(DOTA)DCWP-NH2; disulfide 4-10) is lower in Kd: 100 to 300 nM for the first, less than 1 nM for the second. The second binds more tightly here.

`COc1cccc2c(C[C@H](NC(C)=O)C(=O)N[C@H](C(=O)N[C@H](C(=O)N[C@H]3CSSC[C@@H](C(=O)N[C@@H](Cc4c[nH]c5ccccc45)C(=O)N4CCC[C@H]4C(N)=O)NC(=O)[C@H](CC(=O)O)NC(=O)[C@H](CCCCNC(=O)CN4CCN(CC(=O)O)CCN(CC(=O)O)CCN(CC(=O)O)CC4)NC(=O)[C@H](Cc4ccc5ccccc5c4)NC(=O)[C@H](CC(N)=O)NC(=O)[C@H](CC4CCNCC4)NC3=O)C3CCCCC3)[C@@H](C)O)c[nH]c12` [compound 405, Ac-(7MeO-Trp)-T-(Chg)-C(3)-[3-(4-piperidinyl)-Ala]-N-(2Nal)-Lys(DOTA)-D-C(3)-W-P-CONH2] (Ac-[Trp(7-OMe)]T[Chg]C[Ala(piperidin-4-yl)]N[2Nal]K(DOTA)DCWP-NH2; disulfide 4-10) and `CC(=O)N[C@@H](Cc1c[nH]c2ccccc12)C(=O)N[C@H](C(=O)N[C@H](C(=O)N[C@H]1CSSC[C@@H](C(=O)N[C@@H](Cc2c[nH]c3ccccc23)C(=O)N2CCC[C@H]2C(N)=O)NC(=O)[C@H](CC(=O)O)NC(=O)[C@H](CCCCNC(=O)CNC(=O)CNC(=O)CCC(=O)NCCCOCCOCCOCCCNC(=O)CN2CCN(CC(=O)O)CCN(CC(=O)O)CCN(CC(=O)O)CC2)NC(=O)[C@H](Cc2ccc3ccccc3c2)NC(=O)[C@H](CC(N)=O)NC(=O)[C@H](CC2CCNCC2)NC1=O)C1CCCCC1)[C@@H](C)O` [compound 406, Ac-W-T-(Chg)-C(3)-[3-(4-piperidinyl)-Ala]-N-(2Nal)-Lys(G-G-TTDS-DOTA)-D-C(3)-W-P-CONH2] (Ac-WT[Chg]C[Ala(piperidin-4-yl)]N[2Nal]K([Gly-Gly-Suc-X11])DCWP-NH2; disulfide 4-10) cannot be ordered by Kd: less than 1 nM for the first, less than 1 nM for the second.

— patent publication US20250049970A1, “DLL3 TARGETING PEPTIDES AND CONSTRUCTS THEREOF” (MARIANA ONCOLOGY INC., priority 2023, published 2025)
